Residues, ends and D or L forms follow the SMILES beside them.
Columns and labels:
[1] = test system: Caco-2 cells (human intestinal epithelial cells); type: in vitro ADME
Experimental: The cellular uptake of [^3H] SPN10(s) (with or without aromatic-cationic peptides) or [^3H] peptide conjugates will be studied using Caco-2 cells (human intestinal epithelial cells), and confirmed using SH-SY5Y (human neuroblastoma), HEK293 (human embryonic kidney) and CRFK (kidney epithelial) cells. Monolayers of cells will be cultured in 12-well plates (5×10^5 cells/well) coated with collagen for 3 days. On day 4, the cells will be washed twice with pre-warmed HBSS, and incubated with 0.2 mL of HBSS containing 250 nM [^3H] peptide conjugates; [^3H] aromatic-cationic peptides (an equivalent molar dose of aromatic-cationic peptide based on the concentration of the aromatic-cationic peptide administered in the peptide conjugate treatment group); [^3H] SPN10(s) (an equivalent molar dose of SPN10 based on the concentration of SPN10 administered in the peptide conjugate treatment group); or SPN10(s) in combination with aromatic-cationic peptides (e.g., an equivalent molar dose of SPN10 based on the concentration of SPN10 administered in the peptide conjugate treatment group and an equivalent molar dose of aromatic-cationic peptide based on the concentration of aromatic-cationic peptide administered in the peptide conjugate treatment group) at 37° C. or 4° C. for various times up to 1 hour. […] The cell lysates will then be transferred to scintillation vials and radioactivity will be counted. To distinguish between internalized radioactivity and surface-associated radioactivity, an acid-wash step will be included. […] Excitation will be performed at 340 nm by means of a UV laser, and emission will be measured at 520 nm. […]

[2] = test system: Human low density lipoprotein (LDL); assay: Example 18: LDL oxidation (conjugated dienes at 234 nm); type: biochemical; details: 10 mM, 5 hours at 37° C.
Experimental: Human low density lipoprotein (LDL) will be prepared fresh from stored plasma. LDL oxidation will be induced catalytically by the addition of 10 mM […], and the formation of conjugated dienes will be monitored at 234 nm for 5 hours at 37° C. (B. Moosmann and C. Behl, Mol. Pharmacol. 61:260-268 (2002).

Sprague-Dawley rats = assay: Example 47: wound contraction after burn injury; type: in vivo, rat; details: compared to burn control subjects
Experimental: Sprague-Dawley rats (male, 300-350 g) will be pre-treated with (1 mg) peptide conjugates administered i.p. (approx. 3 mg/kg) 1 hour prior to burn (65° C. water, 25 seconds, lower back), followed by the topical application of peptide conjugates to the wound (1 mg), and 1 mg peptide conjugates administered i.p. once every 12 hours for 72 hours. Wounds will be observed for up to 3 weeks post-burn. A similar treatment regimen is followed for the groups treated with aromatic-cationic peptides (an equivalent molar dose of aromatic-cationic peptide based on the concentration of the aromatic-cationic peptide administered in the peptide conjugate treatment group), SPN10(s) (an equivalent molar dose of SPN10 based on the concentration of SPN10 administered in the peptide conjugate treatment group), or SPN10(s) in combination with aromatic-cationic peptides (e.g., an equivalent molar dose of SPN10 based on the concentration of SPN10 administered in the peptide conjugate treatment group and an equivalent molar dose of aromatic-cationic peptide based on the concentration of aromatic-cationic peptide administered in the peptide conjugate treatment group).

Question: `N=C(N)NCCC[C@H](NC(=O)[C@@H](N)Cc1c[nH]c2ccccc12)C(=O)N[C@@H](Cc1c[nH]c2ccccc12)C(=O)N[C@@H](CCCCN)C(N)=O` [SPN10, H-L-Trp-L-Arg-L-Trp-L-Lys-NH2] (H-WRWK-NH2) was tested. Which “rate of uptake at 4° C. compared to 37° C.” value [1] did it give?
Answer: slower

Question: And the “saturation of uptake by 45 minutes” value [1]?
Answer: 76.5%

Question: And the “saturation of uptake by 1 hour” value [1]?
Answer: 86.3%

Question: What about the “rate of LDL oxidation” value [2] of the same molecule?
Answer: dose-dependently inhibit the rate of LDL oxidation

Question: What about the “rate of wound contraction” value (Sprague-Dawley rats) of the same molecule?
Answer: slower rate of wound contraction
